Key:
[1] = system: P. gingivalis; format: cell-based, Porphyromonas gingivalis
Protocol: In order to establish the effectiveness and selectivity of these conjugates for killing bacteria while sparing mammalian cells, the three conjugates were compared to two widely used clinical photosensitizers, Photofrin II and benzoporphyrin derivative (BPD) (QLT Phototherapeutics Inc., Vancouver, BC). Photosensitizer bulk solid was dissolved in DMSO at 1 mM and diluted in TSB.
Suspensions of P. gingivalis cells (10^8/ml) were incubated in duplicate in the dark at room temperature for 1 min with 5 μm chlorin e6 equivalent of each conjugate, with Photofrin II, and with BPD. Cells were centrifuged, washed once with sterile PBS, and 1 ml fresh TSB was added. In the Example here, the ratios of uptake of chlorin e6 per mg cell protein in P. gingivalis and HCPC-1 cells for the cationic, anionic and neutral conjugates were 46:1, 60:1 and 22:1, respectively.
Bacterial suspensions were added to wells of 12-well plates, and were irradiated in the dark at room temperature using a light emitting diode array which emitted light with wavelengths from 630-710 nm, spanning the absorbance maxima of these photosensitizer compositions. Wells were exposed from below, using fluences from 0 to 25 J/cm^2 at an irradiance of 65 mW/cm^2. Plates were covered during illumination to maintain sterility of the cultures. After illumination of the appropriate wells, serial dilutions of the contents of each well were prepared in TSB, and duplicate 100 μl aliquots were spread on the surfaces of blood agar plates. Survival fractions in each well were calculated by counting the colonies on the plates and dividing by number of colonies from unirradiated controls incubated with photosensitizer in the dark at room temperature for periods equal to irradiation times. Other controls were: bacteria treated neither with photosensitizer nor light, and incubated at room temperature in the dark, and cells exposed to light in the absence of photosensitizer.

[2] = system: HCPC-1 cells; experiment: Phototoxicity to HCPC-1 cells after irradiation, MTT assay; format: cell-based, hamster; conditions: 5 μM photosensitizer, light 630-710 nm, MTT 24 h after irradiation
Protocol: HCPC-1 cells, 2×10^4 in aliquots of 100 μl growth medium with 10% FCS, were seeded in 96-well plates and cultured for 24 h until 70% confluent. Six wells from each plate were incubated with 5 μM of each photosensitizer and irradiated using the conditions described in Example 3. After illumination, cells were incubated with fresh medium at 37° C. for 24 h. Control cells were incubated under the conditions as in Example 3. Cell viability was determined 24 h after irradiation using the MTT-microculture tetrazolium assay, a method that assesses dehydrogenase activity in mitochondria of live cells (Mosmann T. J. Immunol. Methods 65, 55-63, 1983), and survival fractions were calculated as 570 nm absorbance of treated cells divided by that of unirradiated controls.

[3] = system: P. gingivalis; conditions: cited from earlier work
[4] = system: Porphyromonas gingivalis 381; experiment: Uptake of chlorin e6 conjugates by P. gingivalis cells (fluorescence of cell extract per mg cell protein); format: cell-based; conditions: P. gingivalis 10^9 cells/ml, 1 min incubation, at each concentration (1, 5 and 10 μm chlorin e6 equivalent)
Protocol: Porphyromonas gingivalis 381, a Gram negative bacterium and one of the most common species in dental plaque, was maintained by weekly subculture in Trypticase Soy Agar (TSA) with 1% hemin, 1% vitamin K and 5% sheep blood. For experimental purposes, the organism was grown anaerobically in a chamber with 80% N2, 10% CO2 at 35° C. for 48 h, harvested by centrifugation and resuspended in Trypticase Soy Broth (TSB) with 1% hemin and 1% vitamin K. Cells were dispersed by sonication and repeated passage through Pasteur pipettes. Cell numbers were measured in a spectrophotometer (at wavelength 600 nm, in which an O.D. of 1 yields 10^8 cells/ml) using one ml tubes, to obtain the appropriate number of bacteria for each experiment (10^9 cells/ml for uptake studies and 10^8 cells/ml for irradiation studies). […]
Fluorescence of each cell extract was measured on a spectrofluorimeter (model FluoroMax, SPEX Industries, Edison, N.J.). The excitation wavelength was 400 nm and emission spectra of cell suspensions were recorded from 580 to 700 nm. The protein content of each cell extract was determined by a modified Lowry method (Markwell M. A. et al. Anal. Biochem. 87:206, 1978) using bovine serum albumin dissolved in 0.1 M NaOH/1% SDS as a protein standard to construct calibration curves. Results were expressed as mol chlorin e6 taken up per mg cell protein.

Row | Substance | killing of HCPC-1 cells (in words) [2] | bacteria killed / reduction in viability of P. gingivalis [1] | also measured
1 | benzoporphyrin derivative [BPD, reference compound] | killed HCPC-1 cells | – | killing of P. gingivalis (in words) ([1]; 1 min incubation, light 630-710 nm, fluences 0 to 25 J/cm^2): not P. gingivalis
2 | histatin-5 | – | – | number of molecules that bind P. gingivalis [3]: About 3,600 molecules; Kd ([3]; read-out: Kd of binding to P. gingivalis): ~1000 nM
3 | polylysine chlorin e6 [polylysine-chlorin e6] | – | 99.9% | accumulation of the cationic conjugate compared to the anionic and neutral conjugates [4]: 2 times; HCPC-1 cells killed [2]: less than 2%
4 | polylysine chlorin e6 acetylated [polylysine-chlorin e6-ac] | not HCPC-1 cells | over 90% | –
5 | polylysine chlorin e6-succinylated [polylysine-chlorin e6-succ] | – | 66% | –
